Source: publication PMC8802628, “Selective activation of PFKL suppresses the phagocytic oxidative burst” (Cell, 2021)
Positions count from the first letter of the chain named.

Assays:
[1] = tested on: PMNs; test: NADPH/NADP+ detection assay in neutrophils; type: cell-based, human; settings: PMA 30 min, then apocynin
Procedure: The ratio of NADPH/NADP^+ (or NADH/NAD^+) was calculated after measuring the individual concentrations of NADPH and NADP^+ (or NADH and NAD^+) with NADP/NADPH-Glo (or NAD/NADH-Glo) assays (Promega). […] Cells were lysed in plates by addition of 1% dodecyltrimethylammonium bromide (DTAB). To measure NADPH, half of the samples was heated at 60 °C for 30 min. The other half was treated with HCl before heating to 60°C, to measure NADP^+. All samples were neutralized before adding luciferase detection reagent, then incubated for 1 h with gentle shaking. Luminescence was recorded on a plate reader (Envision).

[2] = molecular target: T1, PFKM+pocket (R315 to lysine) (Homo sapiens, UniProt P08237, R315K); test: Recombinant PFKM+pocket activity assay; type: biochemical; settings: at 4 mM ATP
T1 construct: made in house; host or cells: Sf9 insect cells (baculovirus)
T1 sequence (P08237 1-780 R315K): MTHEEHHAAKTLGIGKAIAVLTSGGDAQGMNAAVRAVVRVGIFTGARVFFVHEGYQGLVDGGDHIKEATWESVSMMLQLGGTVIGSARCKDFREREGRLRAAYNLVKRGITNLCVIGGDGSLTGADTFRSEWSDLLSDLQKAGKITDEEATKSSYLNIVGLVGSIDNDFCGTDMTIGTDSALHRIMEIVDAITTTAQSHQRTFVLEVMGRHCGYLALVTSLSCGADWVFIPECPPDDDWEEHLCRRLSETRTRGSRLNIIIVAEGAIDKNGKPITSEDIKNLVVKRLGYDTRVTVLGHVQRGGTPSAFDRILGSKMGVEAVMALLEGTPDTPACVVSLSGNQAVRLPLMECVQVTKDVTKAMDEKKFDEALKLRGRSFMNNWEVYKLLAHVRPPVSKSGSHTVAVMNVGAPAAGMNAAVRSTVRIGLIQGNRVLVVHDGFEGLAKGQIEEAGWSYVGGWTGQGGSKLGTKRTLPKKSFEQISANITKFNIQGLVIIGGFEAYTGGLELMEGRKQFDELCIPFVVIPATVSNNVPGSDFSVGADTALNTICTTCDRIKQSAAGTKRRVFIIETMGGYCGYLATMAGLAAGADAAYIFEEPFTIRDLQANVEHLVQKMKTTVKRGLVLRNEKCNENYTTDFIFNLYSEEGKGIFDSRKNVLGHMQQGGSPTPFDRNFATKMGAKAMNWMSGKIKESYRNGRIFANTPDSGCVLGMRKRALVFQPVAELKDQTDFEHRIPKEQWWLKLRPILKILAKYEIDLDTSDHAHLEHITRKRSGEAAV
From the text: (§1) Recombinant N-terminal His-tagged human PFKL (NP_002617), PFKM (NP_000280), and PFKP (NM_002627.4) were generated as described ([Webb et al., 2015], [2017]). Point mutants of PFK1 were generated using the QuikChange Lightning kit (Aligent).
(§2) His-tagged PFK1 was expressed and purified as described with slight modifications ([Webb et al., 2015], [2017]). Briefly, baculovirus was generated using the Bac-to-Bac Expression system (Invitrogen). PFK1 was expressed in 2-5 × 10^6 sf9 cells at a multiplicity of infection of two for 48 h. Cells were lysed in 20 mM HEPES, pH 7.5, 80 mM potassium phosphate, 1 mM 2-mercapentoethanol, 10% glycerol, 10 mM imidazole, and EDTA-free Protease Inhibitor Cocktail (Abcam) with a Dounce homogenizer. The soluble lysate was incubated with HisPur cobalt resin (ThermoFisher Scientific). The resin was washed with 5 bead volumes lysis buffer, 10 bead volumes lysis buffer containing 2 M NaCl, and 5 further bead volumes lysis buffer. PFK1 was eluted in lysis buffer containing 100 mM imidazole. Fractions containing protein were pooled, passed over a desalting column equilibrated in freezing buffer [20 mM HEPES pH 7.5, 1 mM DTT, 500 μM ammonium sulfate, 5% glycerol, 1 mM ATP, and 100 μM EDTA] and concentrated using an Amicon Ultracel-30K Centrifugal Filter Unit (MilliporeSigma). Protein was quantified using a Bradford Protein Assay kit (ThermoFisher Scientific), and aliquotes frozen in liquid nitrogen for storage at −80°C.
PFK1 activity was determined using the rate of FBP production via an auxiliary enzyme assay adapted to a 96-well format ([Brüser et al., 2012]; [Webb et al., 2015]). The auxiliary enzymes aldolase, triosephosphate isomerase, and glycerol phosphate dehydrogenase were purchased from MilliporeSigma as ammonium sulfate slurries and desalted using an Amicon Ultracel-10K Centrifugal Filter Unit. For assays containing FBP, the rate of ADP production was determined using the auxiliary enzymes pyruvate kinase (PK) and lactate dehydrogenase (LDH) (MilliporeSigma) in a buffer containing 250 μM phosphoenolpyruvic acid, […] NADH, 50 mM HEPES pH 7.5, 100 mM KCl, 1 mM DTT, and effector concentrations as described in the text. The temperature was equilibrated to 25°C for 5 min before initiating the reaction 10 mM MgCl2. Absorbance at 340 nm was measured using a Varioskan LUX Multimode microplate reader (ThermoFisher). Kinetic parameters were generated by nonlinear regression analysis using Prism (GraphPad Software) and are the mean of a minimum of three measurements from two independent preparations of protein. One unit of activity was defined as the amount of enzyme that catalyzed the formation of 1 μmol of fructose 1,6-bisphosphate per min at 25°C. […]

[3] = molecular target: T2, PFKL (Homo sapiens, UniProt P17858); test: Recombinant PFKL activity assay (relief of ATP inhibition); type: biochemical; settings: at 3.1 mM ATP; F6P approximately twice the Km,F6P
T2 construct: made in house; host or cells: Sf9 insect cells (baculovirus, Bac-to-Bac)
T2 sequence (P17858 1-780): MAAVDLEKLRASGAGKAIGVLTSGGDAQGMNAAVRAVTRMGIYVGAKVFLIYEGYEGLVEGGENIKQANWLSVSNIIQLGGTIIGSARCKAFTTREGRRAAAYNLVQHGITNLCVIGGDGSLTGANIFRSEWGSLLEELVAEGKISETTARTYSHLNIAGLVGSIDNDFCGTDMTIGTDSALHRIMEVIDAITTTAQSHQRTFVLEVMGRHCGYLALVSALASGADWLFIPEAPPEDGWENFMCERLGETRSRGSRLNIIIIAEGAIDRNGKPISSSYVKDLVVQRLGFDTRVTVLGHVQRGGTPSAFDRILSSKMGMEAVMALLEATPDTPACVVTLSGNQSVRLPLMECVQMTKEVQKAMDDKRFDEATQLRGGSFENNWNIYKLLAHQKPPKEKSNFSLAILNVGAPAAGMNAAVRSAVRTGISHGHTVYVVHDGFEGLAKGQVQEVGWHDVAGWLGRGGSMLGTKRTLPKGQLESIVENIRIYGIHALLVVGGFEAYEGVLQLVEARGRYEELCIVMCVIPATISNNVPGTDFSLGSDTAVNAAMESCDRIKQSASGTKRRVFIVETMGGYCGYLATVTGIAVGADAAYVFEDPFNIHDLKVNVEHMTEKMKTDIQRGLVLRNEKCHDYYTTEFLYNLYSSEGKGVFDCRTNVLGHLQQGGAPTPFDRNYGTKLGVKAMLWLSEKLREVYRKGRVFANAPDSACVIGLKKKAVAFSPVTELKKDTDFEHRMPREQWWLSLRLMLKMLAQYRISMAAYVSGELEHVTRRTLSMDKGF
From the text: as §1, §2
(§3) PFK1 activity was determined using the rate of FBP production via an auxiliary enzyme assay adapted to a 96-well format ([Brüser et al., 2012]; [Webb et al., 2015]). The auxiliary enzymes aldolase, triosephosphate isomerase, and glycerol phosphate dehydrogenase were purchased from MilliporeSigma as ammonium sulfate slurries and desalted using an Amicon Ultracel-10K Centrifugal Filter Unit. For assays containing FBP, the rate of ADP production was determined using the auxiliary enzymes pyruvate kinase (PK) and lactate dehydrogenase (LDH) (MilliporeSigma) in a buffer containing 250 μM phosphoenolpyruvic acid, […] NADH, 50 mM HEPES pH 7.5, 100 mM KCl, 1 mM DTT, and effector concentrations as described in the text. The temperature was equilibrated to 25°C for 5 min before initiating the reaction 10 mM MgCl2. Absorbance at 340 nm was measured using a Varioskan LUX Multimode microplate reader (ThermoFisher). Kinetic parameters were generated by nonlinear regression analysis using Prism (GraphPad Software) and are the mean of a minimum of three measurements from two independent preparations of protein. One unit of activity was defined as the amount of enzyme that catalyzed the formation of 1 μmol of fructose 1,6-bisphosphate per min at 25°C. Assays for PFKM were performed at pH 7.0 due to the pH-dependence of ATP inhibition ([Trivedi and Danforth, 1966]).

[4] = molecular target: T3, PFKL (K315R, V545L, and V582M), PFKL3Mut (Homo sapiens, UniProt P17858, K315R/V545L/V582M); test: Recombinant PFKL3Mut activity assay; type: biochemical; settings: at 3.1 mM ATP; F6P approximately twice the Km,F6P
T3 construct: made in house; host or cells: Sf9 insect cells (baculovirus)
T3 sequence (P17858 1-780 K315R/V545L/V582M): T2 sequence (P17858 1-780) with K315R, V545L, V582M
From the text: as §1, §2, §3

[5] = tested on: human peripheral blood neutrophils; test: NETosis assay in human neutrophils (SYTOX Green, DNA area); type: cell-based; settings: PMA; SAR analogs compared to LDC7559
Procedure: Freshly purified neutrophils were plated at 6 × 10^3 cells/well in glass bottom 96-well plates (SensoPlate, Greiner Bio-One 82050-792) in the RPMI medium described above. Cells were pretreated with DMSO vehicle, 0.5 μM NA-11, 100 μM apocynin, 0.5 μM and 5 μM PALP, or 0.5 μM and 5 μM LDC7559 for 30 min, and then stimulated with 50 nM PMA, 1 μM f-MLP, 5 μg/mL cholesterol crystals, 10 μg/mL LPS, 25 μM nigericin, or 25 μM calcymicin (A23187) for 3 h (except in Figures S1A, 6A and S7C, where cells were stimulated for 4 h). Cells were fixed and permeabilized in 2.5% paraformaldehyde (PFA) and 0.02% Triton X-100 in PBS for 30 min. For quantification of NETosis, cells were stained with 150 nM SYTOX Green and imaged in a KEYENCE Fluorescence Microscope (KEYENCE, ZB-X800E) at 10 x magnification. For immunolabeling, fixed cells were blocked with 2% BSA for 1 h, and then stained with anti-CitH3 and anti-MPO antibodies at a dilution of 1/200 in 1% BSA in PBS. Images were taken at 60 x magnification using an ImageXpress Micro Confocal high-content imaging system (Molecular Devices).
Semi-automated analysis of both phase and fluorescence images of SYTOX Green-stained neutrophils used a specialized MATLAB algorithm. Total cells were counted by scoring phase standard deviation and radial symmetry. NETosis was classified in cells by measuring the DNA area in the fluorescence image and comparing with a select internal training set for each experiment. Unstimulated cells and PMA-stimulated, […] cells served as negative controls. PMA-stimulated cells served as a positive control. NET-forming cells are presented as a percentage of total cells.

[6] = tested on: PFK1; test: PFK1 activity in PMN lysates; type: cell-based, human; settings: neutrophils treated with PMA, LPS, or cholesterol crystals
Procedure: PFK1 activity assays from neutrophil lysates were modified from Abrantes et al., 2012. Briefly, neutrophils (10^7) were cultured with 0.5 μM NA-11 for 30 min, and then stimulated with 50 nM PMA, 5 μg/mL cholesterol crystals, 10 μg/mL LPS or 25 μM nigericin for 30 min. Cells were lysed in 10 mM PBS, 1% Triton X-100, and 1 x EDTA-free protease inhibitor cocktail on ice for 10 min. The soluble protein lysates were quantified by BCA assay (Pierce) and adjusted to 0.3125 mg/mL with lysis buffer. Lysate (80 μL) was mixed with 100 μL 2x enzyme cocktail solution (100 mM Tris-HCL pH7.4, 10 mM MgCl2, 0.5 mM ATP, 0.3 mM NADH, 1.35 units/mL Aldolase, 10 units/mL Triose phosphate isomerase, 4 units/mL glycerophosphate dehydrogenase, 20 mM ammonium sulfate) equilibrated to reach room temperature for 5 min. 20 μL of Fructose-6-phosphate (40 mM) was added and the reaction monitored for NADH decrease (absorbance at 340 nm) every 30 s for 30 min. Specific activity is in pmoles FBP per min per mg lysate.

Compound	inhibition of PMA-induced NETosis [5]	also measured
NC(=O)c1ccc(N)nc1 [6-aminonicotinamide, reference compound]	–	NADPH replenishment / turnover after apocynin [1]: effectively blocked NADPH turnover
Nc1ncnc2c1ncn2[C@@H]1O[C@H](COP(=O)(O)OP(=O)(O)OP(=O)(O)O)[C@@H](O)[C@H]1O [ATP]	–	inhibition of PFKM+pocket [2]: > 90%; ATP inhibition of wild-type PFKL [3]: > 80%; inhibition of mutant PFKL (PFKL3Mut) [4]: > 80%
CC#CCC(=O)Nc1ccc2c(c1)OCc1cc(-c3ccccc3OC)nn1C2 [NA-2]	no inhibitor activity	–
COc1cccc(-c2cc3n(n2)Cc2ccc(NC(C)=O)cc2OC3)c1 [NA-6]	slight increase in inhibitory activity	–
COc1ccc(-c2cc3n(n2)Cc2ccc(NC(C)=O)cc2OC3)cc1 [NA-7]	slight increase in inhibitory activity	–
CC(=O)Nc1ccc2c(c1)OCc1cc(Br)nn1C2 [NA-8]	inactive	–
CC#CCC(=O)Nc1cccc(-c2cc3n(n2)Cc2ccc(NC(C)=O)cc2OC3)c1 [NA-9]	largely tolerated	–
CC(=O)Nc1ccc2c(c1)OCc1cc(-c3cccc(C#CCCCO)c3)nn1C2 [NA-10]	largely tolerated	–
bisindolylmaleimide [reference compound]	–	activation-induced reduction in PFK1 activity [6]: prevented the decrease in PFKL activity
